Test results from patent US4073935A, “Substituted propanol-(2)-derivatives and their nicotinic acid esters, and process for their preparation, and the use thereof as hypolipemic drugs” (Klinge Pharma GmbH & Co., priority 1974, dated 1978).
Like-named read-outs stand apart in the source and are kept apart here.

System: serum lipids
Test: Lipid-lowering action in normolipemic rats
Format: in vivo
Conditions: Rattus norvegicus, 72 h, 4 × 100 mg/kg oral over 3 days, male Wistar rats, vs controls, X ± Sx
Protocol: Lipid-lowering action was tested on groups of 10 male Wistar rats (Ivanovas-Kisslegg), weight 200-220 g, normolipemic, or ordinary ration ("ssniff" complete feed).
The test compounds were taken up in an aqueous solution of 0.25% agar and 0.85% NaCl and administered orally. After administration of 4 × 100 mg/kg over a period of 3 days, the animals were bled by cardiac puncture after privation of […] for 4 hours.^1
^1 H. Enomoto and R. Zschocke, 3rd Int. Symp. Atheroscler, Berlin 1973, Abstr. 238.
Serum lipids were determined with a Technicon autoanalyzer. Total cholesterol (TC) was tested by the Liebermann-Burchard reaction. Quantitative analysis for triglycerides (TG) was performed by Eggstein and Kreutz's enzyme method (Klin. Wschr. 44, 262, 1966), modified for autoanalyzer.
Lipid lowering effect is expressed as percent lowering of total cholesterol and triglycerides compared to controls.

[1] = read-out: % Lowering TC (total cholesterol)
[2] = read-out: % Lowering TG (triglycerides)

SMILES	inhibition in vivo at 100 mg/kg [1]	inhibition in vivo at 100 mg/kg [2]
O=C(O)c1ccc(OCC(O)CSc2ccc(Cl)cc2)cc1 (stereo not drawn) [Compound 75, 3-(4'-Carboxyphenoxy)-1-(4'-chlorphenylmercapto)-propanol-(2)]	32.2 ± 8.7%	55.8 ± 14.2%
CCCOC(=O)c1ccc(OCC(O)COc2ccc(C(C)(C)C)cc2)cc1 (stereo not drawn) [Compound 18]	34.4 ± 6.9%	68.3 ± 23.1%
CN(C)CCOC(=O)c1ccc(OCC(O)COc2ccc(Cl)cc2)cc1 (stereo not drawn) [Compound 83]	46.2 ± 15.4%	72.5 ± 11.1%
O=C(O)CCc1ccc(OCC(O)COc2ccc(Cl)cc2)cc1 (stereo not drawn) [Compound 56, 3-4'-(2-Carboxyathyl)-phenoxy!-1-(4'-chlorphenoxy)-propanol-(2)]	48 ± 12.9%	76.7 ± 7.7%
O=C(C=Cc1ccc(OCC(O)COc2ccc(Cl)cc2)cc1)NO (stereo not drawn) [Compound 106, 3-(4'-(2-(n-hydroxycarbamoyl)-vinyl)-phenoxy)-1-(4'-chlorophenoxy)-propanol-(2)]	43.9 ± 19.4%	64.2 ± 17.1%
O=C(C=Cc1ccc(OCC(O)COc2ccc(Cl)cc2)cc1)OCCO (stereo not drawn) [Compound 46]	32.3 ± 19.7%	69.5 ± 8.9%
C=CCOC(=O)C=Cc1ccc(OCC(O)COc2ccc(Cl)cc2)cc1 (stereo not drawn) [Compound 11]	76.1 ± 3.7%	40.2 ± 10.3%
O=C(O)C=Cc1ccc(OCC(O)COc2ccc(Cl)cc2)cc1 (stereo not drawn) [Compound 55, 3-(4'-(2-carboxyvinyl)-phenoxy)-1-(4'-chlorophenoxy)propanol-(2)]	45.4 ± 9.2%	49.9 ± 23.7%
COC(OC)c1ccc(OCC(O)COc2ccc(C(C)(C)C)cc2)cc1 (stereo not drawn) [Compound 113]	44.4 ± 11.2%	84 ± 8.8%
CCOC(OCC)c1ccc(OCC(O)COc2ccc(Cl)cc2)cc1 (stereo not drawn) [Compound 110]	32.1 ± 15.8%	68 ± 6.5%
O=C(OCCO)c1ccc(OCC(O)CNc2ccc(Cl)cc2)cc1 (stereo not drawn) [Compound 52]	50 ± 10%	53.9 ± 13.3%
COC(=O)CCc1ccc(OCC(O)COc2ccc(Cl)cc2)cc1 (stereo not drawn) [Compound 9]	44.5 ± 17.5%	87.9 ± 11.9%
COC(=O)CCc1ccc(OCC(O)COc2ccc(C(C)(C)C)cc2)cc1 (stereo not drawn) [Compound 22, 3-(4'-(2-methoxycarbonylethyl)-phenoxy)-1-(4'-tert.-butylphenoxy)-propanol-(2)]	46.9 ± 11.4%	79 ± 10.7%
CCOC(=O)c1ccc(OCC(O)COc2ccc(Cl)cc2)cc1 (stereo not drawn) [Compound 2]	40.4 ± 24.3%	60.2 ± 8.4%
CC(C)(C)c1ccc(OCC(O)COc2ccc(C=CC(=O)OCCO)cc2)cc1 (stereo not drawn) [Compound 50]	49.3 ± 11.7%	84.2 ± 5.4%
COC(=O)c1ccc(OCC(O)CSc2ccc(Cl)cc2)cc1 (stereo not drawn) [Compound 38]	12.3 ± 14.6%	53 ± 17.6%
CC(C)OC(=O)c1ccc(OCC(O)COc2ccc(C(C)(C)C)cc2)cc1 (stereo not drawn) [Compound 19]	44.9 ± 8%	72.9 ± 6.1%
CC(C)OC(=O)c1ccc(OCC(O)CNc2ccc(Cl)cc2)cc1 (stereo not drawn) [Compound 28]	30.8 ± 9.7%	64.6 ± 16.9%
COCCOC(=O)c1ccc(OCC(O)COc2ccc(Cl)cc2)cc1 (stereo not drawn) [Compound 45]	51.7 ± 12.2%	75.8 ± 17.1%
CC(C)(C)c1ccc(OCC(O)COc2ccc(C(=O)NO)cc2)cc1 (stereo not drawn) [Compound 108]	51.1 ± 8.3%	77.8 ± 3.3%
COC(=O)C=Cc1ccc(OCC(O)CNc2ccc(C(C)(C)C)cc2)cc1 (stereo not drawn) [Compound 37, 3-(4'-(2'-methoxycarbonylvinyl)-phenoxy)-1-(4'-t-butylphenylamino)-propanol-(2)]	32.8 ± 13.7%	71.9 ± 13.5%
